Key:
RhlR = target: T1, RhlR (Pseudomonas aeruginosa, UniProt P54292); experiment: Two plasmid E. coli RhlR reporter (luciferase); type: cell-based, P. aeruginosa; conditions: for Percent Activity (RhlR reporter): inhibitor at 100 μM, relative to wild-type (100%); for remaining activity at 100 µM: read-out: Percent Activity (RhlR reporter)
T1 construct: expressed in transfected cells; host or cells: E. coli TOP10 carrying pBAD-A 6xHIS-rhlR and pCS26 prhlA-luxCDABE
Description: (§1) A two plasmid E. coli reporter system was constructed, in which LasR or RhlR was expressed under an arabinose inducible promoter (e.g., LasR or RhlR was cloned into a pBAD-A vector and expressed upon addition of arabinose) in the presence of a LasR-dependent or RhlR-dependent promoter fused to luciferase (e.g., cloned into a pCS26 vector). Upon the addition of arabinose and in the presence of AI, LasR or RhlR were expressed, formed a complex with the cognate AI, underwent dimerization, and activated transcription of the reporter construct. All potential inhibitors were tested at 100 μM. The percent activity was reported relative to wild-type (100%).
(§2) A sample experimental protocol for the RhlR reporter (see, e.g., Table 5A2) or for the LasR reporter (see, e.g., Table 5A1).
For the RhlR reporter, strains were re-streaked on LB+appropriate antibiotic before each experiment and grown overnight at 37° C. Three colonies were picked and a 3 mL overnight culture in LB+appropriate antibiotic was started. The culture was grown overnight at 37° C. The overnight culture was back-diluted 1:1000 into fresh LB+appropriate antibiotic in an appropriate volume, depending on the number of plates being screened. Each well in a 384 well plate received about 20 μL of culture. An additional 25 mL of culture was reserved for priming the plate filler. The culture was grown at 37° C. until OD600˜0.5, which took about 4 hrs. A 384-well plate was prepared. Stock concentrations of molecules (e.g., small molecule inhibitors) were 10 mM.
For a 10-point dose response for the RhlR reporter, a 1:3 dilution of molecule:DMSO (333 μL of stock molecule, 667 μL of DMSO using a 1 mL pipetteman) was used for accurate dispensing by the robot dispenser. Upon a prompt by the software, the appropriate concentration of each molecule was added. Each well was normalized with a DMSO standard to bring the total % volume of DMSO up to 1% using the robot. Plates were set aside with dispensed drugs until the cells were ready. Once the cells reached an OD600 of 0.5, an appropriate amount of cell culture was dispensed for screening into an Erlenmeyer flask. (Extra culture was saved for a negative control.) Arabinose was added to 0.1% final concentration (1:1000 dilution from stock solution), and AI was added to 10 μM (ED75) from a 10 mM stock. The components of the flask were mixed together by swirling. As mentioned previously, other concentrations of AIs may be suitable, e.g., the concentrations may be in the range of 2 uM to 100 uM, from 10 uM to 100 uM or from 2 uM to 10 uM. In some embodiments, 2 nM of 3-O—C12-HSL (for LasR) and 10 uM of C4-HSL (for RhlR) were used.
(§3) A clean plate was filled with water, 70% ethanol, LB, and primed with cultured cells to ensure that initial dispensing led to the appropriate volume of cells being added to the wells. 20 μL of this solution was dispensed into appropriate wells in a 384-well plate that contained small molecule antagonists. 20 μL of this solution was dispensed into wells intended for a positive control that contain only DMSO. To the culture that was saved for negative control, arabinose was added to 0.1%. An equal volume of DMSO was added to the culture, relative to the amount of AI added to the other culture. 20 μL of culture was dispensed into wells intended for a negative control that contained only DMSO and no small molecule QS inhibitors. Plates were incubated at 30° C. in the plate shaker. Plates were read using a 384 LUM/OD 600 setting on the plate reader after 4 hours of induction.
For data analysis, the average and standard deviation for each of the control groups were determined. In a screen, for each data point, the number of standard deviations from the mean was determined to determine if the inhibitor was a “hit”. In a dose response curve, for each data point, the percent inhibition was determined: 1−(X/M), where X=single data point and M=is the mean of the AI only control group. […]

LasR [1] = target: T2, LasR (Pseudomonas aeruginosa, UniProt P25084); experiment: Two plasmid E. coli LasR reporter (luciferase); type: cell-based, P. aeruginosa; conditions: for Percent Activity (LasR reporter): inhibitor at 100 μM, relative to wild-type (100%); for remaining activity at 100 µM: read-out: Percent Activity (LasR reporter)
T2 construct: expressed in transfected cells; host or cells: E. coli TOP10 carrying pBAD-A 6xHIS-lasR and pCS26 plasB-luxCDABE
Description: as §1, §2, §3
For data analysis, the average and standard deviation for each of the control groups were determined. In a screen, for each data point, the number of standard deviations from the mean was determined to determine if the inhibitor was a “hit”. In a dose response curve, for each data point, the percent inhibition was determined: 1−(X/M), where X=single data point and M=is the mean of the AI only control group. The dose response curve was then plotted as a function of % inhibition (y) v. [inhibitor] on a log scale (x).

[2] = tested on: Wild-type P. aeruginosa pyocyanin production; experiment: Pyocyanin virulence factor production; type: cell-based; conditions: 100 μM overnight, back diluted, grown 18 hrs with inhibitor
Method: FIG. 6. QS inhibitors reduce the level of virulence factor production in P. aeruginosa. The ability of the small molecule inhibitors to reduce virulence factor production by monitoring pyocyanin production was assessed.
The ability of the small molecule QS inhibitors to reduce virulence factor production by monitoring production of pyocyanin as a representative virulence factor was assessed. Wild-type P. aeruginosa was incubated with the indicated molecules at 100 μM overnight, back diluted, and grown for 18 hrs in the presence of QS inhibitor.
By varying the concentration of QS inhibitors, dose dependence curves were generated.

LasR [3] = target: T2, LasR; experiment: 10-point autoinducer dose response on LasR reporter with QS inhibitor (competition); type: cell-based, P. aeruginosa; conditions: inhibitor at 100 μM; increasing concentrations of AI
Method: FIG. 4. QS inhibitors bind non-competitively to LasR. A 10-point dose response curve with increasing concentrations of autoinducer 3-O—C12-HSL (AI) was generated for a variety of QS small molecule inhibitors. In this figure, curve C12 (filled circle) corresponds to the absence of inhibitor. […] Instead, the inhibitors bind elsewhere on LasR to prevent LasR-dependent transcription.
Using known molecular biology techniques, assays were performed to determine whether binding of the small molecule QS inhibitors and the AIs occurred by a competitive or by another inhibitory mechanism (see, e.g., FIG. 4).
Thus, a 10-point dose response curve with concentrations of AI ranging from 10 pM to 5 nM was generated for a variety of QS small molecule inhibitors. Curve C12 (dotted filled line) corresponds to the absence of inhibitor. […] Instead, the inhibitors bind elsewhere on LasR to prevent LasR-dependent transcription.

LasR and RhlR = experiment: Receptor specific reporter assays for LasR and RhlR activity (stated in words); type: cell-based, P. aeruginosa
Description: wherein R may be H or OH, and two or more of the R substituents of a given compound are OH; R′ is H or OH; and R″ is H or OH. […] A variety of compounds were obtained and tested for activity (e.g., inhibition of receptor specific reporter assays for LasR and RhlR activity).
as §1

T2 sequence (P25084 whole entry): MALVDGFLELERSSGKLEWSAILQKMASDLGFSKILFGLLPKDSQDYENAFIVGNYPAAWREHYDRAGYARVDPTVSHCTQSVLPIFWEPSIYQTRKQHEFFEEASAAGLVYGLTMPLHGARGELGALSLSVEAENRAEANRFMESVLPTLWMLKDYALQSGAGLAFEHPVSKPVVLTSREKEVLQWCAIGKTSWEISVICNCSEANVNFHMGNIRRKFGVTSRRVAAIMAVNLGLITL
T1 sequence (P54292 whole entry): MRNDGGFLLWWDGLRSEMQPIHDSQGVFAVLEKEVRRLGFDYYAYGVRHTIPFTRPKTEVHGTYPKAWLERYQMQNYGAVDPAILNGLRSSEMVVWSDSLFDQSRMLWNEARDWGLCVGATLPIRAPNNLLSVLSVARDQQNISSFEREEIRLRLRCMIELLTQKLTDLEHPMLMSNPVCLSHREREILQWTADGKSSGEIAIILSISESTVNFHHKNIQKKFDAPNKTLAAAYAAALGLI

## O=c1cc(-c2ccccc2)oc2cc(O)ccc12 [Molecule 45]
RhlR
  Percent Activity (RhlR reporter): Inactive
LasR [1]
  Percent Activity (LasR reporter): Inactive

## COc1cc(OC)c2c(=O)cc(-c3ccccc3)oc2c1 [Molecule 49]
RhlR
  Percent Activity (RhlR reporter): Inactive
LasR [1]
  Percent Activity (LasR reporter): Inactive

## O=c1c(O)c(-c2ccccc2)oc2cc(O)cc(O)c12 [Molecule 55]
RhlR
  Percent Activity (RhlR reporter): Inactive
LasR [1]
  Percent Activity (LasR reporter): Inactive

## O=c1c(O)c(-c2ccc(O)c(O)c2)oc2cc(O)cc(O)c12 [Molecule 48, Quercetin]
[2]
  pyocyanin production: inhibit pyocyanin to varying degrees
LasR [3]
  competition with autoinducer 3-O—C12-HSL for LasR: did not compete
LasR and RhlR
  activity (inhibition of receptor specific reporter assays for LasR and RhlR activity): inhibit both LasR and RhlR
RhlR
  remaining activity at 100 µM: 40.2%
LasR [1]
  remaining activity at 100 µM: 44.4%

## O=C(CCc1ccc(O)cc1)c1c(O)cc(O)cc1O [Molecule 1, Phloretin]
[2]
  pyocyanin production: inhibit pyocyanin to varying degrees
LasR [3]
  competition with autoinducer 3-O—C12-HSL for LasR: did not compete
LasR and RhlR
  activity (inhibition of receptor specific reporter assays for LasR and RhlR activity): inhibit both LasR and RhlR
RhlR
  remaining activity at 100 µM: 68.4%
LasR [1]
  remaining activity at 100 µM: 24.1%

## O=c1cc(-c2ccccc2)oc2cc(O)cc(O)c12 [Molecule 3, Chrysin]
[2]
  pyocyanin production: inhibit pyocyanin to varying degrees
LasR [3]
  competition with autoinducer 3-O—C12-HSL for LasR: did not compete
LasR and RhlR
  activity (inhibition of receptor specific reporter assays for LasR and RhlR activity): inhibit both LasR and RhlR
RhlR
  remaining activity at 100 µM: 39.2%
LasR [1]
  remaining activity at 100 µM: 53.1%

## COc1cc(OC)c2c(=O)cc(-c3ccc(O)cc3)oc2c1 [Molecule 52]
RhlR
  Percent Activity (RhlR reporter): Inactive
LasR [1]
  Percent Activity (LasR reporter): Inactive

## O=c1cc(-c2ccc(O)cc2)oc2cc(O)cc(O)c12 [Molecule 43]
RhlR
  remaining activity at 100 µM: 84.5%
LasR [1]
  remaining activity at 100 µM: 82.4%

## O=c1cc(-c2ccccc2)oc2ccc(O)c(O)c12 [Molecule 53]
RhlR
  remaining activity at 100 µM: 31.8%
LasR [1]
  remaining activity at 100 µM: 16.7%

## O=c1cc(-c2ccccc2)oc2ccc(O)cc12 [Molecule 50]
RhlR
  Percent Activity (RhlR reporter): Inactive
LasR [1]
  Percent Activity (LasR reporter): Inactive

## O=C1CC(c2ccc(O)cc2)Oc2cc(O)cc(O)c21 (stereo not shown) [Molecule 4]
RhlR
  remaining activity at 100 µM: 60.5%
LasR [1]
  remaining activity at 100 µM: 63.3%

## O=C1CC(c2ccc(O)cc2)Oc2cc(O)cc(O)c21 (stereo not shown) [Molecule 4, Narigenin]
[2]
  pyocyanin production: inhibit pyocyanin to varying degrees
LasR and RhlR
  activity (inhibition of receptor specific reporter assays for LasR and RhlR activity): active

## O=c1cc(-c2ccccc2)oc2cccc(O)c12 [Molecule 44]
RhlR
  Percent Activity (RhlR reporter): Inactive
LasR [1]
  Percent Activity (LasR reporter): Inactive

## O=c1cc(-c2ccccc2)oc2c(O)c(O)ccc12 [Molecule 54]
RhlR
  remaining activity at 100 µM: 54.5%
LasR [1]
  remaining activity at 100 µM: 60.3%

Reference: patent publication US20190307818A1, “NOVEL ANTIMICROBIAL COMPOSITIONS AND METHODS OF USE” (priority 2016, published 2019)
